Test results as given in publication PMC12251226, “Comparison of in silico predictions of action potential duration in response to inhibition of IKr and ICaL with new human ex vivo recordings” (PLOS Computational Biology, 2025).
Like-named read-outs stand apart in the source and are kept apart here. Each block holds one compound with its values, some of them ahead of it.

Tests used:
[1] = tested on: adult human ventricular trabeculae; assay: Ex vivo sharp electrode action potential recording (APD90) in ventricular trabeculae, 1 Hz pacing; conditions: for Change in APD90 (in words): over the tested concentrations; for Mean ΔAPD90 (SEM): 25 min steady 1 Hz pacing
CaV1.2 channels [2] = target: T1, CaV1.2 channels (Homo sapiens, UniProt Q13936); conditions: CaV1.2, CHO cells, Pharm protocol
CaV1.2 channels [3] = target: T1, CaV1.2 channels; conditions: CaV1.2, CHO cells, CiPA protocol
hERG = conditions: cited from earlier work
CaV1.2 channels [4] = target: T1, CaV1.2 channels; assay: cell-based
CaV1.2 channels [5] = target: T1, CaV1.2 channels; assay: cell-based; remark: listed apart in the source
hERG channels [6] = target: T2, hERG channels (Homo sapiens, UniProt Q12809); assay: Automated patch clamp, IKr Pharm (Roche in-house) protocol, CHO cells; conditions: hERG, CHO cells, Pharm protocol
hERG channels [7] = target: T2, hERG channels; assay: Automated patch clamp, IKr CiPA protocol, CHO cells; format: cell-based; set-up: expressed in transfected cells; host or cells: CHO (crelox)
CaV1.2 (ICaL) = CaV1.2 (ICaL) (Homo sapiens, UniProt Q13936); assay: in vitro; conditions: CHO cells expressing human CaV1.2/β2/α2δ
hERG (IKr) = hERG (IKr) (Homo sapiens, UniProt Q12809); assay: Automated patch clamp, IKr Pharm (Roche in-house) protocol, CHO cells; conditions: human

T2 sequence (Q12809 whole entry): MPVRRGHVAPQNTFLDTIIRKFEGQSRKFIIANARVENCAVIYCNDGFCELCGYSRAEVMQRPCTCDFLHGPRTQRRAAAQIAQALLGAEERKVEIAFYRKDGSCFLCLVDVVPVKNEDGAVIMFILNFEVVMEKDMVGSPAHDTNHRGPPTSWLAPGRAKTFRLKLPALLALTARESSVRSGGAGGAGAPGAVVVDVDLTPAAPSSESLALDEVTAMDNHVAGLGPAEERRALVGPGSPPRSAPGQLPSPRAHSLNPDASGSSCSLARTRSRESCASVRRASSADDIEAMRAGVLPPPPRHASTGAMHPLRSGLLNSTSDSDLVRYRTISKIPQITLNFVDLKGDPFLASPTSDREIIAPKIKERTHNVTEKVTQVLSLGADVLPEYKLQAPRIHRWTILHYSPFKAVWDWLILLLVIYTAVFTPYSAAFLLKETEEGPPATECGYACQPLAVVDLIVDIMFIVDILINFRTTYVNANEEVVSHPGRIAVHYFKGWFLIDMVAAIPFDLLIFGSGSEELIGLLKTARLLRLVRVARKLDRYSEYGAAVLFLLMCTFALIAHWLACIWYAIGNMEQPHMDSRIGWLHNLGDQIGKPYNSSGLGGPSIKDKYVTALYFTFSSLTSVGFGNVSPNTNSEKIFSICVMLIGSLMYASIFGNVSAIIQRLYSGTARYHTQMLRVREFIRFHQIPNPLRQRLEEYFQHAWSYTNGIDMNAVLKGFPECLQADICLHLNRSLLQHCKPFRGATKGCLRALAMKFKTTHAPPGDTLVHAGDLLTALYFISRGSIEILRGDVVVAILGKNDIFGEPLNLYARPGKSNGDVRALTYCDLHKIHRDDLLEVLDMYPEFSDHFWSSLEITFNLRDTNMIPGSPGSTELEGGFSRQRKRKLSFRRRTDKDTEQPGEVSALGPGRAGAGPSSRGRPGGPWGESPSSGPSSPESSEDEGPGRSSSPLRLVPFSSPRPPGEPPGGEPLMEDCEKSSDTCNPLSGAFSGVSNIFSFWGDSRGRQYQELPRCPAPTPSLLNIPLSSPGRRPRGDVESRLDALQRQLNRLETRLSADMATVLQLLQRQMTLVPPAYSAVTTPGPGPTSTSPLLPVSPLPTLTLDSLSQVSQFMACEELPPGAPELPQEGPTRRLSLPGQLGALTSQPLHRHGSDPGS
T1 sequence (Q13936 whole entry): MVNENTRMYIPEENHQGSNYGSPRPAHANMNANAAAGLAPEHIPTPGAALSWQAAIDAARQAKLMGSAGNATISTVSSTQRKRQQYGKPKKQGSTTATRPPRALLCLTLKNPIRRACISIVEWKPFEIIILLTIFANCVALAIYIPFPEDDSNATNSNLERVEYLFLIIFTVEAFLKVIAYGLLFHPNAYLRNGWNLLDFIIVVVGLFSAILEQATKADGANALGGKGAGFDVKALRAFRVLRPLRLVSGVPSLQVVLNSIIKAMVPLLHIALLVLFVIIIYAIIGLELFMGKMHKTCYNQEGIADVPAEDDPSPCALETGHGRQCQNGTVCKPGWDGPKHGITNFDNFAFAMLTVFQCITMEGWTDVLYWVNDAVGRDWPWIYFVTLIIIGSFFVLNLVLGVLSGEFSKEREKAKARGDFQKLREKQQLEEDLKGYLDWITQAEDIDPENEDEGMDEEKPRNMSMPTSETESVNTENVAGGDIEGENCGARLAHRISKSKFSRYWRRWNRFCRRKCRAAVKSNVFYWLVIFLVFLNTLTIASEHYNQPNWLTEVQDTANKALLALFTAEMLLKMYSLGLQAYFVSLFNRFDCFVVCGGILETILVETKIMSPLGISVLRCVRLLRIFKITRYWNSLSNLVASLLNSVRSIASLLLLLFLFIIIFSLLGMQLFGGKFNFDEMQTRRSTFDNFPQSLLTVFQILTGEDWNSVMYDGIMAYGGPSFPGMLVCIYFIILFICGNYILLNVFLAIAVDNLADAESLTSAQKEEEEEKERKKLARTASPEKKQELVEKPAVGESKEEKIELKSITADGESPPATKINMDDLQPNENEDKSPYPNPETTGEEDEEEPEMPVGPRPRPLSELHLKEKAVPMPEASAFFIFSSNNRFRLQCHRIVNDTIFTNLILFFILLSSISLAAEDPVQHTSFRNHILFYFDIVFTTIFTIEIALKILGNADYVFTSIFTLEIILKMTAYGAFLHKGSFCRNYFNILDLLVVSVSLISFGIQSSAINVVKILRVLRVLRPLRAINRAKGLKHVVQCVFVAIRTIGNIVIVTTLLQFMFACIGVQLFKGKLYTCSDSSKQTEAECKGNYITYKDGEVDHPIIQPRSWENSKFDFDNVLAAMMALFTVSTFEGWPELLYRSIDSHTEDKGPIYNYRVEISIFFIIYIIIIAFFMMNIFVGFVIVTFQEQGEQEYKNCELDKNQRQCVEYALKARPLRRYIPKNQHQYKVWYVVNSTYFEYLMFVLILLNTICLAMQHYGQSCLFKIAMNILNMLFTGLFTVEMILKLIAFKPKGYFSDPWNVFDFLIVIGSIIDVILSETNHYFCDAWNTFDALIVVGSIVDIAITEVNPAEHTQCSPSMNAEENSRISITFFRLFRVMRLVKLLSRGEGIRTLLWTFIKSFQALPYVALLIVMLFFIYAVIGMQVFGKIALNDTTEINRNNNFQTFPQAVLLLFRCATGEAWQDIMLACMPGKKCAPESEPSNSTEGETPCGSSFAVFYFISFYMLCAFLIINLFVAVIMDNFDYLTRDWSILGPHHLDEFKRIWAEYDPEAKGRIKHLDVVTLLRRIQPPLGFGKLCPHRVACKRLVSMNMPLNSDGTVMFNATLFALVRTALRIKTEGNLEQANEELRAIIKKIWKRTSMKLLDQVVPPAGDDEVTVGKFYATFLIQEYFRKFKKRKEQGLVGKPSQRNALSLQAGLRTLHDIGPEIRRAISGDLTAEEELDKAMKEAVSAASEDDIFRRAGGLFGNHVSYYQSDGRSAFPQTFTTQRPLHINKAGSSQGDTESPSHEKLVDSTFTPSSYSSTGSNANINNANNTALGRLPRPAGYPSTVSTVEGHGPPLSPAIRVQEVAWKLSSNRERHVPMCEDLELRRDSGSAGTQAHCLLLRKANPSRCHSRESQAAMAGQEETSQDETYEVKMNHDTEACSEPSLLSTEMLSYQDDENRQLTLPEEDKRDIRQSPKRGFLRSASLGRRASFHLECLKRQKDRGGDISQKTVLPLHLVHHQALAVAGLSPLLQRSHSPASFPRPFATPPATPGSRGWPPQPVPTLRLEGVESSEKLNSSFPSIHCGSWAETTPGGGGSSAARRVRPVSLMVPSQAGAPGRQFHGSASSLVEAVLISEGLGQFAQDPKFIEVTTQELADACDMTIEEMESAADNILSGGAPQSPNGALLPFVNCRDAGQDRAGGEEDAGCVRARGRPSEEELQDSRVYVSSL
T1 sequence (Q08289 whole entry partner): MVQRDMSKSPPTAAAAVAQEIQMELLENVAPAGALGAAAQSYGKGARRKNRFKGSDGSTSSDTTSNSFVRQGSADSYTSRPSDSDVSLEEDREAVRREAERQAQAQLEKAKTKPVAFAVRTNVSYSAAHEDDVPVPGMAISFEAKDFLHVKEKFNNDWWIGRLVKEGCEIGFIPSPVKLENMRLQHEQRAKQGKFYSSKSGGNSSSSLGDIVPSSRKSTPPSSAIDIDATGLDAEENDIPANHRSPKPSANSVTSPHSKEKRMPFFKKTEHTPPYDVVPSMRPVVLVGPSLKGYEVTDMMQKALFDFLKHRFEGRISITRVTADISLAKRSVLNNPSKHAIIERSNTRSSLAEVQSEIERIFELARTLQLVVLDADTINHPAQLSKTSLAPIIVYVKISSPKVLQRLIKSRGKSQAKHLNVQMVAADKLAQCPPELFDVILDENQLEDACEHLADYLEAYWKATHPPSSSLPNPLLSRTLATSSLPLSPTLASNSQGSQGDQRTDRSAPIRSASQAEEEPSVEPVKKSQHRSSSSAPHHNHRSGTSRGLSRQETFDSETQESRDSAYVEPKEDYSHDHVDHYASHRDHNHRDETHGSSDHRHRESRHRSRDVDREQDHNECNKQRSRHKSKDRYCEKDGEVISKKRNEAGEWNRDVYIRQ
T1 sequence (P54289 25-956 partner limits assumed): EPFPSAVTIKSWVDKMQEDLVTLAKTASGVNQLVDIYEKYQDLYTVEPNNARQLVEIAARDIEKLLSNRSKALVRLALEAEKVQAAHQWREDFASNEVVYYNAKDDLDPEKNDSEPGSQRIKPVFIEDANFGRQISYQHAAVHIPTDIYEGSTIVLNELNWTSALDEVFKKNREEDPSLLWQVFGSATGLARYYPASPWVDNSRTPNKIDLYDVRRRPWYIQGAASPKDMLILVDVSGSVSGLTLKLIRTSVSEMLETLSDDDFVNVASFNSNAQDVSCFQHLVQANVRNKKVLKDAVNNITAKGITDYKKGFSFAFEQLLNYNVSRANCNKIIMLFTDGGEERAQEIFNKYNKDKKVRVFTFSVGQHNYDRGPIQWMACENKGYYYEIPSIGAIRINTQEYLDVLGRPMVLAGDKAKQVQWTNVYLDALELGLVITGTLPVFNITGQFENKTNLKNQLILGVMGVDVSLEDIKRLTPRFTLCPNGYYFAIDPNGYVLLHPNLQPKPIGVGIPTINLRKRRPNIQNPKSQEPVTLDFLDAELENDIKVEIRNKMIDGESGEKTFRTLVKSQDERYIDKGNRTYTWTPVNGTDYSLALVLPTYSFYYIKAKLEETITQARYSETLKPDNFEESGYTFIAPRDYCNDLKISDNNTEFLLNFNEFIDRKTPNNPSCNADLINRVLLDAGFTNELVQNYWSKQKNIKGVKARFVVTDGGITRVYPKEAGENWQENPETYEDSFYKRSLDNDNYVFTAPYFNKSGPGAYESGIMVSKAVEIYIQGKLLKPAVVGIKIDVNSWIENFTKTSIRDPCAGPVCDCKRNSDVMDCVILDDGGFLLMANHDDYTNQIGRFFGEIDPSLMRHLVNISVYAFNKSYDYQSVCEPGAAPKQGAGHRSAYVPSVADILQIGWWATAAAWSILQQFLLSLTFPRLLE
T1 sequence (P54289 957-1103 partner limits assumed): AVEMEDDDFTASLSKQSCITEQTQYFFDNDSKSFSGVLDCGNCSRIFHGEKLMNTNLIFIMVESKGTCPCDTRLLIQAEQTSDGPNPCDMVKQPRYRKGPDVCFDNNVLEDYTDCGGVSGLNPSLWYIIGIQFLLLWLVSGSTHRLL

Change in APD90 (in words) [1]: little or no change in APD90
Compound: CN(C)CCCN1c2ccccc2Sc2ccc(Cl)cc21 [Chlorpromazine]
ICaL Pharm Hill coefficient h (CaV1.2 channels [2]): 0.88
ICaL CiPA Hill coefficient h (CaV1.2 channels [3]): 0.93

Compound: COc1ccc(CCN(C)CCCC(C#N)(c2ccc(OC)c(OC)c2)C(C)C)cc1OC (centres unmarked) [Verapamil]
Mean ΔAPD90 (SEM) ([1]; nominal drug conc 0.01 μM): –15 (4) ms
Mean ΔAPD90 (SEM) ([1]; nominal drug conc 0.1 μM): –19 (5) ms
Change in APD90 (in words) [1]: substantially shortened APD90

Mean ΔAPD90 (SEM) ([1]; nominal drug conc 0.04 μM): –2 (7) ms
Change in APD90 (in words) [1]: little or no change in APD90
Compound: CN1CCCCC1CCN1c2ccccc2Sc2ccc([S+](C)[O-])cc21 (centres unmarked) [Mesoridazine]
IC50 (CaV1.2 channels [4]): 4.06 µM
IC50 (CaV1.2 channels [5]): 3.96 µM
IKr Pharm Hill coefficient h (hERG channels [6]): 1
ICaL Pharm Hill coefficient h (CaV1.2 channels [2]): 0.76
ICaL CiPA Hill coefficient h (CaV1.2 channels [3]): 0.83
IKr CiPA Hill coefficient h (hERG channels [7]; hERG, CHO cells, CiPA protocol): 0.74

Compound: CN1CCN(C2=Nc3cc(Cl)ccc3Nc3ccccc32)CC1 [Clozapine]
Change in APD90 (in words) [1]: little or no change in APD90
inhibition at 3 µM (CaV1.2 (ICaL)): 59%
inhibition at 3 µM (hERG (IKr)): 57%
IKr CiPA Hill coefficient h (hERG channels [7]; human): 0.94

Compound: CNCCC(Oc1ccc(C(F)(F)F)cc1)c1ccccc1 (centres unmarked) [Fluoxetine]
Mean ΔAPD90 (SEM) ([1]; nominal drug conc 3 μM): –2 (5) ms
Change in APD90 (in words) [1]: little or no change in APD90
ICaL Pharm Hill coefficient h (CaV1.2 channels [2]): 0.94
ICaL CiPA Hill coefficient h (CaV1.2 channels [3]): 0.90

Mean ΔAPD90 (SEM) ([1]; nominal drug conc 0.03 μM): –5 (6) ms
Mean ΔAPD90 (SEM) ([1]; nominal drug conc 0.3 μM): –24 (6) ms
Compound: COC(=O)C1=C(C)NC(C)=C(C(=O)OC)C1c1ccccc1[N+](=O)[O-] [Nifedipine]
